Experimental data as given in patent publication US8722923B2, “Conjugates for treating neurodegenerative diseases and disorders” (Ramot at Tel-Aviv University Ltd., priority 2008, dated 2014).

Assays:
[1] = system: MPTP-Induced Parkinson's Disease Model in Mice; test: Example 2: MPTP acute toxicity model, tyrosine hydroxylase immunoreactive cells in the SNpc; format: in vivo, mice strain C57/bl; details: day 7, MPTP 4 x 20 mg/kg IP day 0, S.C once daily days 0-7, 40 mg/kg L-DOPA or equimolar
Procedure: Mice were administered 4 injections IP of MPTP (each injection contained 20 mg/kg, 5 ml/kg) or saline alone (control) at 2 hours intervals on day 0. Mice were then administered subcutaneously test solutions (TI) (either saline, L-DOPA or BL-1023) once daily throughout the 8 successive treatment days (days 0-7). On day 7, the mice were sacrificed and their brains were removed for immunohistochemistry analysis of the number of tyrosine hyroxylase immunostained cells at the level of the Substantia Nigra (SNpc).
Young adult (7-8 weeks old) male mice strain C57/bl were acclimated for one week prior to MPTP initiation. During acclimation and throughout the entire study duration, animals were housed within a limited access rodent facility and kept in groups of maximum 5 mice in polypropylene cages (23×17×14 cm), fitted with solid bottoms and filled with wood shavings as bedding material. Animals were provided ad libitum a commercial rodent diet and free access to drinking water, supplied to each cage via polyethylene bottles with stainless steel sipper tubes. […]
Immunohistochemistry staining was performed using Rabbit anti tyrosin hydroxylase (1:100). […] Quantitative analysis was effected by counting of immunoreactive cells at the widest dimension of the SNpc lateral to the roots of the third cranial nerve separating medial and lateral SNpc at the level of interpreduncular nucleus.

MPTP acute model mice [2] = test: Experiment 1: open field test, MPTP acute model (AN-490); format: in vivo, C57/BL/6J mice
Procedure: The MPTP neurotoxin was administered on day 0, with 4 IP injections (each injection contained 20 mg/kg, 5 ml/kg) in saline. The various treatments or saline were administered on days 0, 1, 2, 3, 6, 7, 13 and 16. Each group of mice (n=6) was subjected, on days 3, 6, 8 and 16, to the open field test, and the following parameters were scored: the distance moved (FIGS. 2A and 2B), velocity (FIGS. 2C and 2D), time spent immobile (FIGS. 2E and 2F) and time spent in a high level of mobility (FIGS. 2G and 2H; strong mobility) during a period of 20 minutes. FIGS. 2A, 2C, 2E and 2G present the data obtained for the control mice, mice treated with L-DOPA and mice treated with AN-490. FIGS. 2B, 2D, 2F and 2H present the data obtained for control mice or mice treated with MPTP, MPTP with L-DOPA and MPTP with AN-490.
(§1) Acute model: On day 1, C57/BL mice received 4× […] injections of 20 mg/kg MPTP-HCl (Sigma), dissolved in saline solution, at 2 hours intervals.
The open field test measures behavioral responses, locomotor activity, hyperactivity, and exploratory behaviors. Open field test is also used as a measure of anxiety. Mice tend to avoid brightly illuminated, novel, open spaces, so the open field environment acts as an anxiogenic stimulus and allows for measurement of anxiety-induced locomotor activity and exploratory behaviors. The apparatus for the open field test is a square (0.5×0.5 meter) made of white melamine. All activities were recorded by a video camera mounted above the open field and scored in real-time by a motion-recognition software package (Noldus, Holland) that detects and analyzes the movements of the animals. The video image of the open field arena was partitioned into equal-size squares zone. Total distance, average speed, rearing/elongation behavior, and time spent in various parts of the field (e.g. the border areas vs. mid-area) were measured. Testing was carried out in a temperature, noise and light controlled room.

[3] = system: MPTP sub-acute model mice; test: Experiment 2: observed vitality signs (level of motion, fur appearance), MPTP sub-acute model; format: in vivo, C57/BL/6J mice; details: MPTP sub-acute model, per os treatment; for Fur, observer 1: key: Split fur +; Shiny fur +++; for Fur, observer 2: key: Split fur +; Shiny fur +++; for Fur, observer 3: key: Split fur +; Shiny fur +++; for Fur, observer 4: key: Split fur +; Shiny fur +++; for Vitality, observer 3: key: slow motions +; normal motion +++; for Vitality, observer 4: key: slow motions +; normal motion +++
Description: FIG. […] 6 hereinabove. Six independent observers estimated the level of mice vitality by the level of motion of the mice (light purple, marked vitality) and fur appearance (dark purple). The results are an average of the observers' reports.

MPTP acute model mice [4] = test: Experiment 3: RotaRod test, MPTP acute model (BL-1023*); format: in vivo, C57/BL/6J mice; details: day 12, after initiation of treatment, per os
Procedure: Mice were administered the following treatments: saline (Control), MPTP+saline (MPTP), MPTP+L-DOPA 30 mg/kg (MPTP+Dopa), MPTP+L-DOPA 30 mg/kg+GABA 18.4 mg/kg (MPTP+G+D) MPTP+BL1023* 48.4 mg/kg (MPTP+1023 30) and MPTP+BL-1023* 24.2 mg/kg (MPTP+BL1023 15). The MPTP neurotoxin was administered on day 0, with 4 IP injections (each injection contained 20 mg/kg, 5 ml/kg) in saline. The various treatments or saline were administered on day 7, 9, 11 and 13 (total of 4 treatments). Each group of mice (n=10) was subjected to the RotaRod test, on day 6 (before initiation of treatment, FIG. 9A) and day 12 (after initiation of treatment, FIG. 9B) and the observed average duration on Rod, tested three times, are presented.
as §1
RotoRod Test: The test measures and records motor coordination of rats and mice using the natural fear of falling motivation. RotoRod (San Diego Industries, San Diego, Calif., USA) was set on 16 rpm speed and accelerated to maximum speed of 25 rpm. The time until the mouse fall was measured up to maximum 4 minutes. The measurements were performed three times for each mouse and the average was calculated. […] When the animal falls from the rotating rod, the photo beams were broken and the Rota-Rod recorded the animal's latency to fall. […]

[5] = 0.16 ionic strength and 25° C.; cited from earlier work

## N[C@@H](Cc1ccc(O)c(O)c1)C(=O)O [L-DOPA, 3,4-dihydroxy-L-phenylalanine]
[1]
  Number of TH Cells: 39
MPTP acute model mice [2]; MPTP treated mice, L-DOPA 25 mg/kg or AN-490 67.5 mg/kg by oral gavage, days 3, 6, 8, 16
  motility / motor activity in open field: lower the motility
MPTP acute model mice [2]; mice not treated with MPTP, L-DOPA 25 mg/kg per os, vs naïve mice or equimolar AN-490
  motility in open field (distance moved, velocity, strong mobility, immobility): tendency toward increase in motility
[3]
  Fur, observer 1: +++
  Fur, observer 2: +++
  Fur, observer 3: +++
  Fur, observer 4: +++
  Vitality, observer 3: +++
  Vitality, observer 4: +++
MPTP acute model mice [4]
  latency in the rotarod test shortened by MPTP: not attenuated
[5]
  pKNH3: 9.42
  pKOH: 8.97
